Source: PMC11357992, “Non-invasive mapping of systemic neutrophil dynamics upon cardiovascular injury” (Nature Cardiovascular Research, 2023)
Several values for one entry are separate records, joined by “and”; a condition that tells them apart may be missing. Equal values may be shown once. Where no end group is shown, it is not given here. Side-chain parts run from the residue outwards. rhodamine‑labelled PEGylated perfluoro‑15‑crown‑5 ether nanoemulsion = not defined here; carboxyfluorescein = N-terminal fluorescence label (CF)

Key:
[1] = test system: human lymphocytes, monocytes or neutrophils; assay: Uptake of hNPPFCs/ConPFCs by human blood immune cells, flow cytometry; format: cell-based; settings: for uptake by lymphocytes, raw data (flow cytometry): human lymphocytes; for uptake by lymphocytes, raw data (flow cytometry) / uptake by monocytes, raw data (flow cytometry): single samples #1-#4; for uptake by monocytes, raw data (flow cytometry): human monocytes
Description: (§1) Blood was collected from the vena brachialis, and erythrocytes were lysed as described above. After 10 min of incubation, samples were centrifuged at 350g for 10 min at 20 °C. For isolation of a purified neutrophil fraction, density gradient centrifugation was performed. Five milliliters of Ficoll 1.077 (Sigma-Aldrich) was layered on 5 ml Ficoll 1.119 (Sigma-Aldrich), and 20 ml of whole blood diluted 1:2 with PBS was carefully layered on the Ficoll 1.077. Samples were centrifuged at 350g for 20 min with low acceleration and brake. The neutrophil layer was isolated by careful aspiration and washed with PBS. Isolated cells were resuspended in MACS buffer.
Human immune cells were discriminated by staining for CD45 (BioLegend, clone HI30), CD11b (BD Biosciences, clone ICRF44), CD14 (BioLegend, clone M5E2) and CD16 (BD Biosciences, clone 3G8) (lymphocytes, CD45^+CD11b^−CD16^−; classical monocytes, CD45^+CD11b^+CD14^++CD16^−; non-classical monocytes, CD45^+CD11b^+CD14^+CD16^++; neutrophils, CD45^+CD11b^+CD16^+). Murine immune cells were discriminated by staining for CD45 (BD Biosciences, clone 30-F11), CD11b (BioLegend, clone M1/70), Ly6G (BD Biosciences, clone 1A8), Ly6C (BioLegend, clone HK1.4) and F4/80 (BioLegend, clone BM8) (lymphocytes, CD45^+CD11b^−Ly6G^−; classical monocytes, CD45^+CD11b^+Ly6G^−Ly6C^hi; non-classical monocytes, CD45^+CD11b^+Ly6G^−Ly6C^lo; neutrophils, CD45^+CD11b^+Ly6G^+; eosinophils, CD45^+CD11b^+Ly6G^+SSC^hiFSC^lo). Both human and murine cells were stained for 20 min at 4 °C, followed by washing with 200 µl MACS buffer.
If not mentioned otherwise, neutrophil-specific peptide or Con (both at 1 µg ml^−1) were incubated for 20 min at 4 °C, while ^NPPFCs or ^ConPFCs were incubated at a concentration of 10 µl ml^−1 for the indicated period of time, followed by two washing steps with 200 µl MACS buffer.
(§2) A total of 1 × 10^6 cells were incubated with 10 µl of the emulsion over a period of 80 min at 37 °C. At distinct time points, 50 µl of the samples were transferred into 2 ml of ice-cold MACS buffer and analyzed for rhodamine fluorescence by flow cytometry.
Extended Data Fig. 8 Physicochemical properties and cellular uptake of ^hNPPFCs. a, Cellular uptake of ^hNPPFCs by human monocyte subsets and neutrophils: Human immune cells isolated from the blood of healthy volunteers were incubated with ^hNPPFCs. Subsequently, cells were stained with CD11b, CD14 and CD16 to differentiate between neutrophils (red), classical monocytes (gray) and non-classical monocytes (blue) and the cells were analyzed by flow cytometry. The cellular uptake of ^hNPPFCs was determined under unstimulated conditions (top) and after treatment with 1 µg/ml LPS (bottom). b, Physicochemical properties of the generated nanotracers: Characterization of size, size distribution and ζ potential of ^MalPFCs and targeting PFCs (^hNPPFCs, ^ConPFCs) by dynamic light scattering (DLS). The rhodamine fluorescence signal of the PCS was determined by IVIS imaging and the ^19F content by ^19F MRI. c-e, Cryo transmission electron microscopy of the generated nanotracers: c, Cryo transmission electron microscopy (cryo-TEM) of ^hNPPFCs and ^ConPFCs. Graphs: The diameter of the PFCs was determined manually from three images categorized into 25 nm groups. […] Data are derived from three images for ^hNPPFCs and ^ConPFCs each. d, Box plot (box and whiskers; min to max) of the diameter of ^ConPFCs/^hNPPFCs calculated from cryo-TEM images. e, Relative amount of liposomes (%) in individual cryo-TEM images. The number of PFCs and liposomes was manually determined (n = 4/5 images). Red arrows in the cryo-TEM images indicate liposomes. Data are mean values ± SD of n = 5-6 (a), n = 3-6 (b), n = 3 (c), n = 3 (d) and n = 6 (e) independent experiments; *** = p < 0.001, verified by one-way ANOVA (a). Source data

[2] = test system: neutrophils, monocytes and lymphocytes from STEMI blood samples; assay: Uptake of hNPPFCs/ConPFCs by immune cells from patients with STEMI, flow cytometry; format: cell-based, human
Description: In total, blood samples from 17 patients with STEMI were used (5 female, 12 male; aged 66.9 ± 13.6 years; troponin T, 3,398 ± 3,520 ng l^−1; creatine kinase, 933.4 ± 685.8 U l^−1; lactate dehydrogenase, 547.8 ± 259.9 U l^−1). Samples were analyzed 24 h after MI. Samples from the oral cavity of patients with pericoronitis (n = 6; 4 female, 2 male; 34.1 ± 21.7 years) and explanted human hearts (n = 3; 1 female, 2 male; 41.6 ± 18.2 years) were processed directly after surgery.
as §1, §2

murine neutrophils = assay: Ex vivo mNPPFC uptake by neutrophils from mice with Matrigel-LPS plug, flow cytometry; format: cell-based, mouse; design: ex vivo uptake by murine neutrophils, Ctrl - mNPPFCs, raw data: unit not given here; settings: for ex vivo uptake by murine neutrophils, Ctrl - mNPPFCs, raw data: Ctrl mice, single samples #1-#5
Description: To induce defined inflammatory foci, we adopted a recently developed model of localized subcutaneous inflammation. To this end, ice-cold Matrigel (Corning) was doped with LPS (1 µg µl^−1; Salmonella typhimurium, Sigma-Aldrich) and subcutaneously (s.c.) implanted into the neck of the mice. Twenty-four hours after implanting the plug, neutrophils were isolated from the blood and incubated ex vivo with ^mNPPFCs or ^ConPFCs. In separate experiments, 24 h after implantation, ^mNPPFCs or ^ConPFCs were injected intravenously, and immune cells were isolated from the blood. In further experiments, 1 d after plug injection, mice received 1 mmol per kg BW ^mNPPFCs, and, 24 h later, the bone marrow was analyzed by ^1H/^19F MRI. Thereafter, mice were killed, and neutrophils were isolated from the bone marrow for determination of cell numbers. In each case, immune cells were analyzed by flow cytometry.
as §2

Substance | uptake by neutrophils, Ctrl - hNPPFCs, raw data ([1]; Ctrl donors, time 0, single samples #1-#8) | uptake by human monocytes and their subtypes, flow cytometry ([1]; also under LPS stimulation (1 µg/ml)) | uptake by lymphocytes, raw data (flow cytometry) ([1]; incubation 0 min) | uptake by lymphocytes, raw data (flow cytometry) ([1]; incubation 40 min) | uptake by lymphocytes, raw data (flow cytometry) ([1]; incubation 80 min) | uptake by monocytes, raw data (flow cytometry) ([1]; incubation 0 min) | uptake by monocytes, raw data (flow cytometry) ([1]; incubation 10 min) | uptake by monocytes, raw data (flow cytometry) ([1]; incubation 20 min) | uptake by monocytes, raw data (flow cytometry) ([1]; incubation 40 min) | uptake by monocytes, raw data (flow cytometry) ([1]; incubation 80 min) | uptake by neutrophils, raw data (flow cytometry) ([1]; human neutrophils, incubation 0 min, single samples #1-#9) | binding to human lymphocytes, flow cytometry ([1]; immune cells from human blood) | binding to human neutrophils, flow cytometry ([1]; immune cells from human blood) | human neutrophils labeled by hNPPFCs ([1]; of all human neutrophils in the authors' samples (CD177 not present on all)) | uptake by neutrophils, STEMI - hNPPFCs, raw data ([2]; STEMI patients, time 0, single samples #1-#5) | cellular uptake by neutrophils from patients with STEMI versus healthy volunteers ([2]; blood obtained within the first 24 h after MI, flow cytometry and 19F MRI) | ex vivo uptake by murine neutrophils under LPS-stimulated versus unstimulated conditions (murine neutrophils; 24 h after Matrigel-LPS implantation) | ex vivo uptake by murine neutrophils, Ctrl - mNPPFCs, raw data (murine neutrophils; time 0) | ex vivo uptake by murine neutrophils, Ctrl - mNPPFCs, raw data (murine neutrophils; time 40)
hNPPFCs: PEGylated rhodamine-labeled perfluorocarbon nanoemulsion coupled with human neutrophil-specific peptide hNP (carboxyfluorescein-DLVTSKLQVGGGC; also: C-terminal Cys coupled via maleimide-PEG2000-DSPE to rhodamine-labelled perfluorocarbon nanoemulsion) | 68.6 and 64 and 91.8 and 102 and 91.2 and 87.9 and 78.2 and 76.6 | only minor uptake | 14.8 and 22.7 and 17.1 and 13 | 125 and 107 and 139 and 206 | 149 and 177 and 157 and 227 | 41.4 and 45.1 and 42.3 and 29.9 | 285 and 252 and 274 and 459 | 318 and 557 and 425 and 621 | 616 and 798 and 629 and 741 | 938 and 1088 and 771 and 1126 | 76.6 and 91.8 and 102 and 91.2 and 87.9 and 78.2 | no binding to lymphocytes | avidly bound to neutrophils | 50–60% | 84.1 and 69.4 and 87.5 and 76.7 and 84.9 | substantially stronger cellular uptake | – | – | –
mNPPFCs: PEGylated rhodamine-labeled perfluoro-15-crown-5 ether nanoemulsion (maleimide PFCs) coupled with murine neutrophil-specific peptide mNP (carboxyfluorescein-DFYKPMPNLRITGGGC([maleimide‑PEG2000‑DSPE-rhodamine‑labelled PEGylated perfluoro‑15‑crown‑5 ether nanoemulsion]); reading uncertain; also: printed as DFYKPMPNLRIT-GGG-C) | – | – | – | – | – | – | – | – | – | – | – | – | – | – | – | – | more rapid and potent uptake | 101 and 127 and 111 and 105 | 4266 and 3190 and 3194 and 3820 and 4700
